The values that follow come from patent US8178539B2, “Substituted 3,4,6,7-tetrahydro-5H-1,2a,4a,8-tetraazacyclopenta[cd]phenalenes and methods” (3M Innovative Properties Company, priority 2006, dated 2012).

The term melting point denotes the temperature of the solid-liquid transition.

Structures can show the parent of a compound that is named as a salt.

`CCOCc1nc2c(N)nc3c4c2n1CC(C)(C)N4CCC3` (as salt: hydrochloride) [Example 6, 2-(Ethoxymethyl)-4,4-dimethyl-3,4,6,7-tetrahydro-5H-1,2a,4a,8-tetraazacyclopenta[cd]phenalen-9-amine hydrochloride] had a melting point of 222 to 227 °C. In turn, `CCOCc1nc2c(N)nc3c4c2n1CCN4CCC3` [Example 1, 2-(Ethoxymethyl)-3,4,6,7-tetrahydro-5H-1,2a,4a,8-tetraazacyclopenta[cd]phenalen-9-amine] displayed a melting point of 172 to 173 °C. The same measure for `COCCc1nc2c(N)nc3c4c2n1CCN4CCC3` [Example 2, 2-(2-Methoxyethyl)-3,4,6,7-tetrahydro-5H-1,2a,4a,8-tetraazacyclopenta[cd]phenalen-9-amine]: 171 to 172 °C. `CCCc1nc2c(N)nc3c4c2n1CCN4CCC3` [Example 3, 2-Propyl-3,4,6,7-tetrahydro-5H-1,2a,4a,8-tetraazacyclopenta[cd]phenalen-9-amine] gave a melting point of 225 to 230 °C.

The compound `CCOCc1nc2c(N)nc3c4c2n1[C@H](C)CN4CCC3` [Example 4, (3R)-2-(Ethoxymethyl)-3-methyl-3,4,6,7-tetrahydro-5H-1,2a,4a,8-tetraazacyclopenta[cd]phenalen-9-amine] had a melting point of 164.5 to 166.1 °C. For the compound `CCOCc1nc2c(N)nc3c4c2n1[C@@H](C)CN4CCC3` [Example 5, (3S)-2-(Ethoxymethyl)-3-methyl-3,4,6,7-tetrahydro-5H-1,2a,4a,8-tetraazacyclopenta[cd]phenalen-9-amine], the melting point was in the range of 164.1 to 165.6 °C.
